One may read the Emax as the size of the effect at its maximum, as opposed to the concentration needed.

The record followed here is patent US6239134A, “Diazole derivatives as serotonergic agents” (American Home Products Corp., priority 2000, dated 2001).

The target in test [1] is T1, human 5HT1A receptor (Homo sapiens, UniProt P08908).
T1 construct: expressed in transfected cells; host or cells: CHO cells, stably transfected
T1 sequence (P08908 1-422): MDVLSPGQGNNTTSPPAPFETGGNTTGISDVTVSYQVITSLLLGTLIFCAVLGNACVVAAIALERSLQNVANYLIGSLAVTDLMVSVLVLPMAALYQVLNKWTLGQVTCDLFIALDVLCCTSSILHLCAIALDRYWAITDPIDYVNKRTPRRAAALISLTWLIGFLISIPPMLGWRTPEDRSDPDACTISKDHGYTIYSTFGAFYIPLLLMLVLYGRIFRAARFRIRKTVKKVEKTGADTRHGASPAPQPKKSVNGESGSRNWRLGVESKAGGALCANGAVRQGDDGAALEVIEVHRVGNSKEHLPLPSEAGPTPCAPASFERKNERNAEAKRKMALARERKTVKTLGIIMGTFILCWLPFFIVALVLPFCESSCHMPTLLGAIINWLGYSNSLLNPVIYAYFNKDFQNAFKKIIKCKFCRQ
The test can be described thus: 5-HT1A Receptor Intrinsic Activity Assay (agonist mode; reversal of stimulated cAMP in stably transfected CHO cells). It counts as cell-based. To be noted: read-out: cAMP Emax. On the procedure: 5-HT1A Receptor Intrinsic Activity Assay
The intrinsic activity of compounds of the present invention was established by testing the claimed compounds ability to reverse the stimulation of cyclic adenosinemonophosphate (cAMP) in CHO cells stably transfected with the human 5-HT1A receptor.
Stably transfected CHO cells were grown in DMEM containing 10% heat inactivated FBS and non-essential amino acids. The cells are plated at a density of […] per well in a 24 well plate and incubated for 2 days in a CO2 incubator. On the second day, the media is replaced with 0.5 mL treatment buffer (DMEM+25 mM HEPES, 5 mM theophylline, […] pargyline) and incubated for 10 minutes at 37° C. Wells are treated with forskolin ([…]) followed immediately by the test compound ([…] for initial screen) and incubated for an additional 10 minutes at 37° C. The reaction is terminated by removal of the media and addition of 0.5 mL ice cold assay buffer (supplied in the RIA kit). Plates are stored at -20° C. prior to assessment of cAMP formation by RIA. EC50 values are determined for the active test compounds. Compounds shown to have no agonist activities (Emax=0%) are further analyzed for their ability to reverse agonist induced activity. In separate experiments, 6 concentrations of antagonist are preincubated for 20 minutes prior to the addition of agonist and forskolin. Cells are harvested as described above. The cAMP kit is supplied by Amersham and the RIA is performed as per kit instructions, and calculations of IC50 performed by GraphPad Prism.

Test [2] concerns the target T1, human 5HT1A receptor. The test can be described thus: 5-HT1A Receptor Binding Assay (displacement of [3H] 8-OH-DPAT in stably transfected CHO cells). As to conditions: @ 1 _M, single point assay. How it is done: 5-HT1A Receptor Binding Assay
High affinity for the serotonin 5-HT1A receptor was established by testing the claimed compound's ability to displace [3H] 8-OH-DPAT binding in CHO cells stably transfected with the human 5HT1A receptor. Stably transfected CHO cells are grown in DMEM containing 10% heat inactivated FBS and non-essential amino acids. Cells are scraped off the plate, transferred to centrifuge tubes, and washed twice by centrifugation (2000 rpm for 10 min., 4° C.) in buffer (50 mM Tris pH 7.5). The resulting pellets are aliquoted and placed at -80° C. On the day of assay, the cells are thawed on ice and resuspended in buffer. The binding assay is performed in a 96 well microtiter plate in a total volume of […]. Non-specific binding is determined in the presence of […], final ligand concentration is 1.5 nM. Following a 30 minute incubation at room temperature, the reaction is terminated by the addition of ice cold buffer and rapid filtration through a GF/B filter presoaked for 30 minutes in 0.5% PEI. Compounds are initially tested in a single point assay to determine percent inhibition at […], and Ki values are determined for the active compounds.

[3] abbreviates: forskolin-stimulated cAMP, CHO cells.

Structures can show the parent of a compound that is named as a salt. Where two headings read alike, the source gives them in different places.

As to `O=C(N[C@@H](Cc1ccccc1)CN1CCN(c2nsnc2Cl)CC1)C1CCCCC1` [Compound 4, Cyclohexanecarboxylic acid {(1S)-1-benzyl-2-(4-(4-chloro[1,2,5}thiadiazol-3-yl)piperazin-1-yl]ethyl}amide fumarate], the Emax on human 5HT1A receptor [1] (CHO) was 93%.
Consider `O=C(N[C@@H](Cc1ccccc1)CN1CCN(c2nsnc2Cl)CC1)c1ccccn1` [Compound 6, Pyridine-2-carboxylic acid {(1S)-1-benzyl-2,3-[4(4-chloro[1,2,5]thiadiazol-3-yl)piperazin-1-yl]ethyl}amide], for which the “5-HT1A binding, percent inhibition” value at human 5HT1A receptor [2] was 47%.
On to `CN(C(=O)C1CCCCC1)[C@H](Cc1ccccc1)CN1CCN(c2nsnc2Cl)CC1` [Compound 7], for which the Emax at human 5HT1A receptor [1] (setting [3]) is 0%.
For the compound `COc1nsnc1N1CCN(C[C@@H](Cc2ccccc2)N(C)C(=O)C2CCCCC2)CC1` [Compound 8, Cyclohexanecarboxylic acid {(1R)-1-benzyl-2-[4-(4-methoxy-[1,2,5]thiadiazol-3-yl)-piperazine-1-yl]ethyl}methyl amide], the Emax on human 5HT1A receptor [1] (setting [3]) came to 0%.
Take `COc1nsnc1N1CCN(C[C@@H](Cc2cccnc2)NC(=O)C2(C)CCCCC2)CC1` [Compound 11, 1-Methylcyclohexanecarboxylic acid {(1R)-2-[4-(4-methoxy-[1,2,5]thiadiazol-3-yl)-piperazin-1-yl]-1-pyridin-3-ylmethylethyl}amide]: at human 5HT1A receptor [1] (setting [3]), the Emax was determined as 0%.
